{
  "source": "paper PMC11728000",
  "about": "“Antitumor Activity and Multi-Target Mechanism of Phenolic Schiff Bases Bearing Methanesulfonamide Fragments: Cell Cycle Analysis and a Molecular Modeling Study” (International Journal of Molecular Sciences, 2024)",
  "key": {"[1]": {"system": "CNS Cancer subpanel tumor cell lines", "assay": "NCI anticancer screening, subpanel summary", "assay_type": "cell-based", "conditions": "mean over subpanel cell lines"}, "RPMI-8226": {"system": "RPMI-8226", "assay": "NCI anticancer screening (SRB), Leukemia subpanel", "assay_type": "cell-based, human"}, "MCF-7 cells [2]": {"system": "MCF-7 cells", "assay": "Cell cycle analysis (PI flow cytometry)", "assay_type": "cell-based, human", "conditions": "10 μM, 24 h", "experimental": "Apoptosis is the primary mechanism by which potent chemotherapeutic agents destroy cancer cells. […] Flow cytometry measured cell growth in the G0-G1, S, and G2/M cell cycle phases.\nUsing the MCF-7 cell line, the cell cycle analysis was carried out like our previous investigation. A FACSCalibur flow cytometer was used to analyze the cells after they had been stained with DNA fluorochrome PI (Supplementary Materials). […]\nphotomultiplier voltage and for compensation setting adjustment to eliminate spectral overlap between the FL1 and the FL2 signals.\n6. Cell cycle analysis\nBreast carcinoma (MCF-7) cell was seeded at 2 × 10^5 cells/well density and incubated for 24 h in six-well plates. Foetal bovine serum (10%) was added, and the cells were incubated at 37 °C in an atmosphere of 5% CO2. The medium was replaced with 1% (v/v) DMSO containing 10.0 μM of […]\nwith 70% ethanol, rinsed with phosphate-buffered saline, and then stained with the DNA fluorochrome propidium iodide (PI) for 15 min at 37 °C. Then, samples were analyzed by flow cytometry using a FACSCalibur (Becton Dickinson). The cell cycle distributions were calculated using CellQuest software (Becton Dickinson). […]"}, "UACC-257": {"system": "UACC-257", "assay": "NCI anticancer screening (SRB), Melanoma subpanel", "assay_type": "cell-based, human"}, "[3]": {"system": "Leukemia subpanel tumor cell lines", "assay": "NCI anticancer screening, subpanel summary", "assay_type": "cell-based", "conditions": "Leukemia, mean over subpanel cell lines"}, "[4]": {"system": "59 human cancer cell lines", "assay": "NCI anticancer screening, full panel summary"}, "[5]": {"system": "Renal Cancer subpanel tumor cell lines", "assay": "NCI anticancer screening, subpanel summary", "assay_type": "cell-based", "conditions": "mean over subpanel cell lines"}, "[6]": {"system": "Colon Cancer subpanel tumor cell lines", "assay": "NCI anticancer screening, subpanel summary", "assay_type": "cell-based", "conditions": "mean over subpanel cell lines"}, "SNB-75": {"system": "SNB-75", "assay": "NCI anticancer screening (SRB), CNS Cancer subpanel", "assay_type": "cell-based, human"}, "MCF-7 cells [7]": {"system": "MCF-7 cells", "assay": "Annexin V-FITC/PI apoptosis assay", "assay_type": "cell-based, human", "conditions": "24 h"}, "NCI-H522": {"system": "NCI-H522", "assay": "NCI anticancer screening (SRB), Non-Small Cell Lung Cancer subpanel", "assay_type": "cell-based, human"}, "[8]": {"system": "Ovarian Cancer subpanel tumor cell lines", "assay": "NCI anticancer screening, subpanel summary", "assay_type": "cell-based", "conditions": "Ovarian Cancer, mean over subpanel cell lines"}, "[9]": {"system": "NSC Lung Cancer subpanel tumor cell lines", "assay": "NCI anticancer screening, subpanel summary", "assay_type": "cell-based", "conditions": "NSC Lung Cancer, mean over subpanel cell lines"}, "COLO 205": {"system": "COLO 205", "assay": "NCI anticancer screening (SRB), Colon Cancer subpanel", "assay_type": "cell-based, human"}, "[10]": {"system": "Melanoma subpanel tumor cell lines", "assay": "NCI anticancer screening, subpanel summary", "assay_type": "cell-based", "conditions": "mean over subpanel cell lines"}, "[11]": {"system": "Prostate Cancer subpanel tumor cell lines", "assay": "NCI anticancer screening, subpanel summary", "assay_type": "cell-based", "conditions": "mean over subpanel cell lines"}, "HT29": {"system": "HT29", "assay": "NCI anticancer screening (SRB), Colon Cancer subpanel", "assay_type": "cell-based, human"}, "[12]": {"system": "Breast Cancer subpanel tumor cell lines", "assay": "NCI anticancer screening, subpanel summary", "assay_type": "cell-based", "conditions": "Breast Cancer, mean over subpanel cell lines"}, "SK-MEL-5": {"system": "SK-MEL-5", "assay": "NCI anticancer screening (SRB), Melanoma subpanel", "assay_type": "cell-based, human", "conditions": "for GI%: 10.0 µM in one dose"}, "NCI-H322M": {"system": "NCI-H322M", "assay": "NCI anticancer screening (SRB), Non-Small Cell Lung Cancer subpanel", "assay_type": "cell-based, human"}, "[13]": {"conditions": "Homo sapiens, read-out: LC50, subpanel average"}, "[14]": {"conditions": "Homo sapiens, five concentrations"}},
  "note": "Like-named read-outs stand apart in the source and are kept apart here.",
  "data": [
    {"smiles": "CCN(CC)c1ccc(C=NNC(=O)c2ccc(NS(C)(=O)=O)cc2)c(O)c1", "note": "[Compound 8]", "values": [
      {"measurement": "GI50", "setting": "[1]; Homo sapiens", "result": 451, "unit": "nM"},
      {"measurement": "CC50", "setting": "[1]; [13]", "result": 86600, "unit": "nM"},
      {"measurement": "TGI, subpanel average", "setting": "[1]", "result": 14140, "unit": "nM"},
      {"measurement": "GI%", "setting": "RPMI-8226; 10.0 µM in one dose", "result": 84, "unit": "%"},
      {"measurement": "GI50", "setting": "RPMI-8226; Homo sapiens, PRMI-8226, five concentrations", "result": 2720, "unit": "nM"},
      {"measurement": "%G0–G1", "setting": "MCF-7 cells [2]", "result": 51.94, "unit": "%"},
      {"measurement": "%G2-M", "setting": "MCF-7 cells [2]", "result": 14.64, "unit": "%"},
      {"measurement": "%S", "setting": "MCF-7 cells [2]", "result": 33.42, "unit": "%"},
      {"measurement": "Comment (cell cycle arrest phase)", "setting": "MCF-7 cells [2]", "result": "Growth arrest@ S"},
      {"measurement": "GI%", "setting": "UACC-257; 10.0 µM in one dose", "result": "> 100", "unit": "%"},
      {"measurement": "GI50", "setting": "UACC-257; [14]", "result": 463, "unit": "nM"},
      {"measurement": "GI50", "setting": "[3]; Homo sapiens", "result": 700, "unit": "nM"},
      {"measurement": "CC50", "setting": "[3]; [13]", "result": "> 100000", "unit": "nM"},
      {"measurement": "TGI, subpanel average", "setting": "[3]", "result": 79880, "unit": "nM"},
      {"measurement": "GI50", "setting": "[4]; Homo sapiens, read-out: GI50 MG-MID", "result": 501, "unit": "nM"},
      {"measurement": "GI50", "setting": "[4]; Homo sapiens, read-out: GI50 range over the cell lines", "result": "141 to 2720", "unit": "nM"},
      {"measurement": "CC50", "setting": "[4]; Homo sapiens, read-out: LC50 MG-MID", "result": "> 100000", "unit": "nM"},
      {"measurement": "TGI MG-MID", "setting": "[4]; full panel mean-graph midpoint", "result": 46800, "unit": "nM"},
      {"measurement": "PCE (positive cytotoxic effect)", "setting": "[4]; ratio of cell lines with growth inhibition > 10% to total cell lines, 10 µM single dose", "result": "59/59"},
      {"measurement": "GI50", "setting": "[5]; Homo sapiens", "result": 826, "unit": "nM"},
      {"measurement": "CC50", "setting": "[5]; [13]", "result": 80600, "unit": "nM"},
      {"measurement": "TGI, subpanel average", "setting": "[5]", "result": 23370, "unit": "nM"},
      {"measurement": "GI50", "setting": "[6]; Homo sapiens", "result": 400, "unit": "nM"},
      {"measurement": "LC50 (NCI-60 lethal concentration, subpanel average)", "setting": "[6]; Homo sapiens", "result": 80100, "unit": "nM"},
      {"measurement": "TGI, subpanel average", "setting": "[6]", "result": 30530, "unit": "nM"},
      {"measurement": "GI%", "setting": "SNB-75; 10.0 µM in one dose", "result": 52, "unit": "%"},
      {"measurement": "GI50", "setting": "SNB-75; [14]", "result": 519, "unit": "nM"},
      {"measurement": "Necrosis", "setting": "MCF-7 cells [7]", "result": 6.08, "unit": "%"},
      {"measurement": "Total Apoptosis", "setting": "MCF-7 cells [7]; annexin V-FITC/PI", "result": 38.16, "unit": "%"},
      {"measurement": "Early Apoptosis", "setting": "MCF-7 cells [7]; lower-right quadrant", "result": 22.49, "unit": "%"},
      {"measurement": "Late Apoptosis", "setting": "MCF-7 cells [7]; upper-right quadrant", "result": 9.59, "unit": "%"},
      {"measurement": "GI%", "setting": "NCI-H522; 10.0 µM in one dose", "result": 88, "unit": "%"},
      {"measurement": "GI50", "setting": "NCI-H522; [14]", "result": 360, "unit": "nM"},
      {"measurement": "GI50", "setting": "[8]; Homo sapiens", "result": 1030, "unit": "nM"},
      {"measurement": "CC50", "setting": "[8]; [13]", "result": 94900, "unit": "nM"},
      {"measurement": "GI50", "setting": "[8]", "result": 1030, "unit": "nM"},
      {"measurement": "TGI, subpanel average", "setting": "[8]", "result": 52900, "unit": "nM"},
      {"measurement": "GI50", "setting": "[9]; Homo sapiens", "result": 622, "unit": "nM"},
      {"measurement": "CC50", "setting": "[9]; [13]", "result": 94900, "unit": "nM"},
      {"measurement": "TGI, subpanel average", "setting": "[9]", "result": 22080, "unit": "nM"},
      {"measurement": "GI%", "setting": "COLO 205; 10.0 µM in one dose", "result": 94, "unit": "%"},
      {"measurement": "GI50", "setting": "COLO 205; [14]", "result": 349, "unit": "nM"},
      {"measurement": "GI50", "setting": "[10]; Homo sapiens", "result": 563, "unit": "nM"},
      {"measurement": "CC50", "setting": "[10]; [13]", "result": 93600, "unit": "nM"},
      {"measurement": "TGI, subpanel average", "setting": "[10]", "result": 21640, "unit": "nM"},
      {"measurement": "GI50", "setting": "[11]; Homo sapiens", "result": 527, "unit": "nM"},
      {"measurement": "CC50", "setting": "[11]; [13]", "result": 98000, "unit": "nM"},
      {"measurement": "TGI, subpanel average", "setting": "[11]", "result": 60800, "unit": "nM"},
      {"measurement": "GI%", "setting": "HT29; 10.0 µM in one dose", "result": 73, "unit": "%"},
      {"measurement": "GI50", "setting": "HT29; Homo sapiens, HT-29, five concentrations", "result": 495, "unit": "nM"},
      {"measurement": "TGI, subpanel average", "setting": "[12]", "result": 15220, "unit": "nM"},
      {"measurement": "GI50", "setting": "[12]; Homo sapiens", "result": 599, "unit": "nM"},
      {"measurement": "CC50", "setting": "[12]; [13]", "result": 99800, "unit": "nM"},
      {"measurement": "GI%", "setting": "SK-MEL-5", "result": 100, "unit": "%"},
      {"measurement": "GI50", "setting": "SK-MEL-5; [14]", "result": 1130, "unit": "nM"},
      {"measurement": "GI%", "setting": "NCI-H322M; 10.0 µM in one dose", "result": 75, "unit": "%"},
      {"measurement": "GI50", "setting": "NCI-H322M; [14]", "result": 258, "unit": "nM"}
    ]},
    {"smiles": "CS(=O)(=O)Nc1ccc(C(=O)NN=Cc2ccccc2O)cc1", "note": "[Compound 7]", "values": [
      {"measurement": "GI%", "setting": "SK-MEL-5", "result": 33, "unit": "%"}
    ]}
  ]
}
